Format in all cases: cell-based
The subject of one test is S. aureus SG511. Put plainly: In vitro activity, dilution in liquid medium, M.I.C. on S. aureus SG511. The conditions noted are these: S. aureus SG511, code 011 HT3, incubation twenty-four hours at 37° C. On the procedure: (§1) In vitro activity, method of dilution in liquid medium
(§2) A series of tubes are prepared in which the same quantity of sterile nutritive medium is distributed. Increasing quantities of the product to be studied are distributed into each tube, then each tube is sown with a bacterial strain. After incubation for twenty-four hours in a heating chamber at 37° C., the growth inhibition is evaluated by transillumination, which allows the minimal inhibitory concentrations (M.I.C.) to be determined, expressed in μg/cml.

The subject of a further test is S. aureus Exp 54146. Put plainly: In vitro activity, dilution in liquid medium, M.I.C. on S. aureus Exp 54146. The conditions noted are these: S. aureus Exp 54146, code 011UC4, incubation twenty-four hours at 37° C. On the procedure:
as §1, §2

In a further test the test system is S. Pyogenes A561. The test is described as follows: In vitro activity, dilution in liquid medium, M.I.C. on S. Pyogenes A561. The settings on record: S. Pyogenes A561, code 02A1UC1, incubation twenty-four hours at 37° C. The procedure: as §1, §2
Another test deals with E. coli. The test is described as follows: In vitro activity, dilution in liquid medium, M.I.C. on E. coli 250HT11. The conditions noted are these: code 250HT11, incubation twenty-four hours at 37° C. The procedure:
as §1, §2

For a further test, the system named is E. coli DC2 (permeable). The test is described as follows: In vitro activity, dilution in liquid medium, M.I.C. on E. coli DC2 (permeable). The conditions noted are these: code 250HT6, incubation twenty-four hours at 37° C. The procedure:
as §1, §2

For a further test, the system named is E. coli (hyperpermeable). Put plainly: In vitro activity, dilution in liquid medium, M.I.C. on E. coli (hyperpermeable). The conditions noted are these: code 250IP5, incubation twenty-four hours at 37° C. On the procedure:
as §1, §2

Each structure is given as a SMILES string.

For `NC(=O)CNC(=O)[C@H]1CC[C@@H]2CN1C(=O)N2OS(=O)(=O)[O-].[Na+]` (relative stereo) [Test A, Sodium salt of trans-N-(2-amino-2-oxoethyl)-7-oxo-6-(sulphooxy)-1,6-diazabicyclo[3,2,1]octane-2-carboxamide], the M.I.C. was more than 160 µg/mL with S. aureus SG511; more than 160 µg/mL with S. aureus Exp 54146; 160 µg/mL in the test on S. Pyogenes A561; 160 µg/mL with E. coli; 80 µg/mL with E. coli DC2 (permeable); 20 µg/mL in the test on E. coli (hyperpermeable).
Regarding `[NH-]C(=O)[C@H]1CC[C@@H]2CN1C(=O)N2OS(=O)(=O)[O-].[Na+].[Na+]` (relative stereo) [Test B, Sodium salt of trans-7-oxo-6-(sulphooxy)-1,6-diazabicyclo[3,2,1]octane-2-carboxamide], the M.I.C. was more than 160 µg/mL in the test with S. aureus SG511; more than 160 µg/mL in the test on S. aureus Exp 54146; more than 160 µg/mL with S. Pyogenes A561; 80 µg/mL in the test with E. coli; 40 µg/mL in the test on E. coli DC2 (permeable); 10 µg/mL in the test on E. coli (hyperpermeable).
As for `O=C(NCc1cccnc1)[C@H]1CC[C@@H]2CN1C(=O)N2OS(=O)(=O)[O-].[Na+]` (relative stereo) [Test C, Sodium salt of trans-7-oxo-N-(3-pyridinylmethyl)-6-(sulphooxy)-1,6-diazabicyclo[3,2,1] octane-2-carboxamide], the M.I.C. in the test on S. aureus SG511 was more than 80 µg/mL; in the test on S. aureus Exp 54146, more than 80 µg/mL; in the test on S. Pyogenes A561, more than 80 µg/mL; in the test with E. coli it was 20 µg/mL; with E. coli DC2 (permeable), 20 µg/mL; with E. coli (hyperpermeable), 5 µg/mL.
`O=C(NCc1ccncc1)[C@H]1CC[C@@H]2CN1C(=O)N2OS(=O)(=O)[O-].[Na+]` (relative stereo) [Test D, Sodium salt of trans-7-oxo-N-[(4-pyridinyl)methyl]-6-(sulphooxy)-1,6-diazabicyclo[3,2,1] octane-2-carboxamide]: the M.I.C. with S. aureus SG511 was more than 80 µg/mL; in the test on S. aureus Exp 54146 it was more than 80 µg/mL; in the test on S. Pyogenes A561, more than 80 µg/mL; with E. coli, 20 µg/mL; in the test with E. coli DC2 (permeable), 20 µg/mL; in the test on E. coli (hyperpermeable), 2.5 µg/mL.
In the case of `O=C(NCc1ccccc1)[C@H]1CC[C@@H]2CN1C(=O)N2OS(=O)(=O)[O-].[Na+]` (relative stereo) [Test E, Sodium salt of trans-7-oxo-N-(phenylmethyl)-6-(sulphooxy)-1,6-diazabicyclo[3,2,1]octane-2-carboxamide], the M.I.C. is 5 µg/mL in the test with S. aureus SG511; 5 µg/mL in the test with S. aureus Exp 54146; 1.2 µg/mL in the test on S. Pyogenes A561; more than 80 µg/mL with E. coli; more than 80 µg/mL in the test with E. coli DC2 (permeable); 20 µg/mL in the test on E. coli (hyperpermeable).
Consider `O=C(OCc1ccccc1)[C@H]1CC[C@@H]2CN1C(=O)N2OS(=O)(=O)[O-].[Na+]` (relative stereo) [Test F, Sodium salt of phenylmethyl trans-7-oxo-6-(sulphooxy)-1,6-diazabicyclo[3,2,1]octane-2-carboxylate], for which the M.I.C. in the test with S. aureus SG511 and in the test on S. aureus Exp 54146 was 160 µg/mL throughout.

The values above are taken from patent publication US8178554B2, “Heterocyclic compounds, their preparation and their use as medicaments, in particular as anti-bacterial agents” (priority 2000, dated 2012).
